Data from US20260258084A1, “New Peptides as Selective IL-23 Receptor Antagonists” (Sanofi, priority 2022, published 2026).
Converted amounts (≈) assume the structure as drawn. Like-named read-outs stand apart in the source and are kept apart here. Starred links: 1 amine or outer side, 2 acyl side, 3 side chain; linkers in the order of their positions; H or OH if unused. Positions of bridges follow the written chain, without caps; N, C: chain ends. Non-standard residues stand in square brackets, D forms with d. Residues, ends and D or L forms follow the SMILES beside them. *: point of attachment. X3 = CN(CCCCC(=O)N[C@@H](CS[*:2])C(=O)[*:1])[*:3]; Trp(7-Me) = Cc1cccc2c(C[C@H](N)C(=O)O)c[nH]c12; X1 = O=C(CCCCN[*:3])N[C@@H](CS[*:2])C(=O)[*:1]; 2Nal = N[C@@H](Cc1ccc2ccccc2c1)C(=O)O; 3Pal = N[C@@H](Cc1cccnc1)C(=O)O; NMeN = CN[C@@H](CC(N)=O)C(=O)O; Thp = NC1(C(=O)O)CCOCC1; Me2NCH2CH2 = CN(C)CC*; Aib = CC(C)(N)C(=O)O; Ahx = NCCCCCC(=O)O; Ava = NCCCCC(=O)O; Sar = CNCC(=O)O

Legend:
[1] = system: IL-23 induced STAT3 signaling in HEK-Blue™ IL-23 cells; assay: IL-23 induced STAT3 signaling in HEK-Blue IL-23 cells (SEAP reporter); format: cell-based; details: human IL23 0.25 ng/ml, read-out: pSTAT3
How it was run: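 HEK-Blue IL-23 cells (10,000/well) pre-incubated 60 min at 37 °C with serially diluted peptides, then stimulated overnight with human IL-23 (0.25 ng/ml final). STAT3-driven SEAP in supernatant detected with QUANTI-Blue after 45 min at RT (OD 620-655 nm); dose-response curves fitted.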

[2] = molecular target: T1, human interleukin-23 receptor (recombinant human IL-23R-Fc chimera) (Homo sapiens, UniProt Q5VWK5); assay: Human ELISA IL23/IL23R (assay for specific human IL23R antagonists); format: binding; details: Table 10; read-out: Human ELISA IL23/IL23R IC50
T1 construct: Fc (IgG Fc fusion)
How it was run: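 Plates coated overnight at 4 °C with human IL23 ([…]), blocked, then serially diluted peptides added with recombinant human IL-23R-Fc (0.1 μg/ml final) for 60 min at room temperature. Bound receptor detected with anti-human IgG1-HRP and fluorogenic peroxidase substrate.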

Pancreatin = assay: Protease stability in simulated intestinal fluid (Pancreatin-SIF, FaSSIF); format: in vitro ADME; details: 1 μM peptide, 37° C.; for remaining at 1 h, 1 µM: 60 min, read-out: FaSSIF 60 (min), remaining percent of peptide; for remaining at 2 h, 1 µM: 120 min, read-out: FaSSIF 120 (min), remaining percent of peptide; for remaining at 4 h, 1 µM: 240 min, read-out: FaSSIF 240 (min), remaining percent of peptide
How it was run: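 Peptide (1 μM final) was incubated at 37° C in simulated intestinal fluid containing pancreatin (1 mg per 10 mL SIF concentrate). Samples were quenched with ethanol/0.1% HCOOH at 0, 60, 120 and 240 min and analysed by LC-MS/MS. Percent remaining is the peak area relative to time 0 (100%).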

[3] = Solubility testing of peptides at different pH; format: physicochemical; details: target concentration 1 mg/ml, 2 hours agitation
How it was run: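 Solid obtained by drying down DMSO stock was taken up at 1 mg/mL in 50 mM HCl pH 1.2 or 50 mM phosphate pH 6.5, 7.4 or 9.0, agitated gently for 2 h, then filtered (0.45 μm). Solubility by UPLC-UV peak area against a DMSO reference standard curve, corrected for extinction coefficients.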

[4] = Chemical stability assessment of peptides (relative purity loss); format: physicochemical; details: 24 hours at 37° C.; for Chemical stability (relative purity loss) Buffer pH 1.2: 50 mM HCl pH 1.2 + acetonitrile (1:1); for Chemical stability (relative purity loss) Buffer pH 7.4: 50 mM phosphate buffer pH 7.4 + acetonitrile (1:1); for Chemical stability (relative purity loss) Buffer pH 6.5: 50 mM phosphate buffer pH 6.5 + acetonitrile (1:1)
How it was run: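 Peptide solutions at 1 mg/ml (purity-corrected) in 1:1 acetonitrile with 50 mM HCl pH 1.2, or 50 mM phosphate pH 6.5 or pH 7.4, held 24 hours at 2° C. and 37° C. Supernatants analysed by UHPLC-UV; relative purity loss taken as percent drop in peak-area purity from 0 to 24 hours at 37° C.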

Pepsin = system: T2, Pepsin; assay: Protease stability in simulated gastric fluid (Pepsin-SGF, FaSSGF); format: in vitro ADME; details: simulated gastric fluid with pepsin (Pepsin-SGF), 60 min, 1 μM peptide, 37° C., read-out: FaSSGF 60 (min), remaining percent of peptide
T2 construct: purchased Merck Millipore
How it was run: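 Peptides at 1 μM final in pepsin-containing SGF at 37° C, sampled at 0, 60, 120 and 240 min, quenched with ethanol (0.1% HCOOH). Analysed by LCMS/MS; percent remaining from peak area relative to time 0 (set to 100%).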

[5] = 50 mM HCl buffer, 50 mM HCl pH 1.2, read-out: Solubility Buffer pH 1.2
[6] = 50 mM phosphate buffer pH 6.5, read-out: Solubility Buffer pH 6.5
[7] = 50 mM phosphate buffer pH 7.4, read-out: Solubility Buffer pH 7.4
[8] = 50 mM phosphate buffer pH 9.0, read-out: Solubility Buffer pH 9.0

SMILES	IC50 [2]	remaining at 1 h, 1 µM (Pancreatin)	remaining at 2 h, 1 µM (Pancreatin)	remaining at 4 h, 1 µM (Pancreatin)	solubility at 2 h [3, 5]	solubility at 2 h [3, 6]	solubility at 2 h [3, 7]	Chemical stability (relative purity loss) Buffer pH 1.2 [4]	Chemical stability (relative purity loss) Buffer pH 7.4 [4]	remaining at 1 h, 1 µM (Pepsin)	Chemical stability (relative purity loss) Buffer pH 6.5 [4]	solubility at 2 h [3, 8]	IC50 [1]
COc1ccc(C[C@@H]2NC(=O)[C@@H]3CSSC[C@H](NC(=O)CCCCCNC(=O)C[C@@H](C(=O)N[C@@H](CC(N)=O)C(=O)N[C@@H](CC(N)=O)C(N)=O)NC(=O)C(C)(C)NC(=O)[C@H](Cc4ccc5ccccc5c4)NC2=O)C(=O)N(C)[C@@H](CC(N)=O)C(=O)N[C@@H]([C@@H](C)O)C(=O)N[C@@H](Cc2c[nH]c4ccccc24)C(=O)N[C@@H](CCC(N)=O)C(=O)N3)cc1 [compound 6] ([Ahx]C[NMeN]TWQCY(Me)[2Nal][Aib]DNN-NH2; disulfide 2-7; lactam N-11)	0.68 nM	78%	77%	51%	40 µg/mL (≈ 24.1 µM)	30 µg/mL (≈ 18 µM)	20 µg/mL (≈ 12 µM)	27.4%	3.1%	1%	–	–	72.9 nM
COc1ccc(C[C@@H]2NC(=O)[C@@H]3CSSC[C@H](NC(=O)CCCCCNC(=O)CC[C@@H](C(=O)N[C@@H](CC(N)=O)C(=O)N[C@@H](CC(N)=O)C(N)=O)NC(=O)C(C)(C)NC(=O)[C@H](Cc4ccc5ccccc5c4)NC2=O)C(=O)N[C@@H](CC(N)=O)C(=O)N[C@@H]([C@@H](C)O)C(=O)N[C@@H](Cc2c[nH]c4ccccc24)C(=O)N[C@@H](CCC(N)=O)C(=O)N3)cc1 [compound 2] ([Ahx]CNTWQCY(Me)[2Nal][Aib]ENN-NH2; disulfide 2-7; lactam N-11)	0.6 nM	71%	71%	47%	100 µg/mL (≈ 60.1 µM)	< 50 µg/mL	< 50 µg/mL	27.5%	0.8%	1%	0.1%	–	54 nM
C[C@@H](O)[C@@H]1NC(=O)[C@H](CC(N)=O)NC(=O)[C@@H]2CSSC[C@H](NC(=O)[C@H](CCC(N)=O)NC(=O)[C@H](Cc3c[nH]c4ccccc34)NC1=O)C(=O)N[C@@H](Cc1ccc(OCCN)cc1)C(=O)N[C@H](Cc1ccc3ccccc3c1)C(=O)NC(C)(C)C(=O)N[C@H](C(=O)N[C@@H](CC(N)=O)C(=O)N[C@@H](CC(N)=O)C(N)=O)CCC(=O)NCCCCC(=O)N2 [compound 5]	0.61 nM	94%	86%	64%	≥ 1110 µg/mL	≥ 1230 µg/mL	≥ 1230 µg/mL	–	–	82%	–	–	9.66 nM
CC(=O)NCCCC[C@@H]1NC(=O)[C@H](Cc2c[nH]c3c(C)cccc23)NC(=O)[C@H]([C@@H](C)O)NC(=O)[C@H](CC(N)=O)NC(=O)[C@@H]2CSSC[C@H](NC1=O)C(=O)N[C@@H](Cc1ccc(OCCN(C)C)cc1)C(=O)N[C@@H](Cc1ccc3ccccc3c1)C(=O)NC1(CCOCC1)C(=O)N[C@H](C(=O)N[C@@H](CO)C(=O)N[C@@H](Cc1cccnc1)C(=O)N(C)CC(N)=O)CCC(=O)NCCCCC(=O)N2 [compound 56] ([Ava]CNT[Trp(7-Me)]K(Ac)CY(Me2NCH2CH2)[2Nal][Thp]ES[3Pal][Sar]-NH2; disulfide 2-7; lactam N-11)	0.57 nM	90%	76%	77%	≥ 1090 µg/mL	≥ 920 µg/mL	≥ 1030 µg/mL	–	–	86%	–	–	0.16 nM

These reach a lower IC50 [2]. Values come first.

IC50 [2]	remaining at 1 h, 1 µM (Pancreatin)	remaining at 2 h, 1 µM (Pancreatin)	remaining at 4 h, 1 µM (Pancreatin)	solubility at 2 h [3, 5]	solubility at 2 h [3, 6]	solubility at 2 h [3, 7]	Chemical stability (relative purity loss) Buffer pH 1.2 [4]	Chemical stability (relative purity loss) Buffer pH 7.4 [4]	remaining at 1 h, 1 µM (Pepsin)	Chemical stability (relative purity loss) Buffer pH 6.5 [4]	solubility at 2 h [3, 8]	SMILES	IC50 [1]
0.54 nM	93%	92%	83%	–	–	–	18.7%	3.7%	87%	2.1%	–	CC(=O)N[C@H]1CCCCNC(=O)[C@@H]2CSSC[C@H](NC(=O)[C@H](CCC(N)=O)NC(=O)[C@H](Cc3c[nH]c4ccccc34)NC1=O)C(=O)N[C@@H](Cc1ccc(OCCN(C)C)cc1)C(=O)N[C@@H](Cc1ccc3ccccc3c1)C(=O)NC1(CCOCC1)C(=O)N[C@H](C(=O)N[C@@H](CC(N)=O)C(=O)NCC(N)=O)CCC(=O)NCCCCC(=O)N2 [compound 30] (Ac-KWQCY(Me2NCH2CH2)[2Nal][Thp]ENG-NH2; linker 1-4-8 via X1)	5.41 nM
0.24 nM	97%	91%	82%	≥ 990 µg/mL	≥ 1000 µg/mL	≥ 1020 µg/mL	–	–	92%	–	≥ 1040 µg/mL	C[C@@H](O)[C@@H]1NC(=O)[C@H](CC(N)=O)NC(=O)[C@@H]2CSSC[C@H](NC(=O)[C@H](CCC(N)=O)NC(=O)[C@H](Cc3c[nH]c4ccccc34)NC1=O)C(=O)N[C@@H](Cc1ccc(OCCN(C)C)cc1)C(=O)N[C@H](Cc1ccc3ccccc3c1)C(=O)NC(C)(C)C(=O)N[C@H](C(=O)N[C@@H](CC(N)=O)C(=O)N[C@@H](CC(N)=O)C(N)=O)CCC(=O)NCCCCC(=O)N2 [compound 8]	5.54 nM
0.38 nM	80%	79%	63%	≥ 890 µg/mL	≥ 940 µg/mL	590 µg/mL (≈ 311 µM)	–	–	77%	–	90 µg/mL (≈ 47.5 µM)	CC[C@H](C)[C@H](NC(=O)[C@H](Cc1cccnc1)NC(=O)[C@H](CC(N)=O)NC(=O)[C@@H]1CCC(=O)NCCCCC(=O)N[C@H]2CSSC[C@H](NC(=O)[C@H](CCCCNC(C)=O)NC(=O)[C@H](Cc3c[nH]c4ccccc34)NC(=O)[C@H]([C@@H](C)O)NC(=O)[C@H](CC(N)=O)NC2=O)C(=O)N[C@@H](Cc2ccc(OCCN(C)C)cc2)C(=O)N[C@@H](Cc2ccc3ccccc3c2)C(=O)NC(C)(C)C(=O)N1)C(N)=O [compound 37] ([Ava]CNTWK(Ac)CY(Me2NCH2CH2)[2Nal][Aib]EN[3Pal]I-NH2; disulfide 2-7; lactam N-11)	2 nM
0.21 nM	99%	91%	91%	≥ 1020 µg/mL	≥ 1000 µg/mL	≥ 930 µg/mL	–	–	68%	–	–	CC(=O)NCCCC[C@@H]1NC(=O)[C@H](Cc2c[nH]c3c(C)cccc23)NC(=O)[C@@H](NC(C)=O)CCCCNC(=O)[C@@H]2CSSC[C@H](NC1=O)C(=O)N[C@@H](Cc1ccc(OCCN(C)C)cc1)C(=O)N[C@@H](Cc1ccc3ccccc3c1)C(=O)NC(C)(C)C(=O)N[C@H](C(=O)N[C@@H](CC(N)=O)C(=O)N[C@@H](Cc1c[nH]cn1)C(N)=O)CCC(=O)N(C)CCCCC(=O)N2 [compound 60] (Ac-K[Trp(7-Me)]K(Ac)CY(Me2NCH2CH2)[2Nal][Aib]ENH-NH2; linker 1-4-8 via X3)	0.16 nM
